Measurements published in US9328374B2, “Selective culture medium and method for detecting carbapenem-resistant bacteria in a test sample” (Institut National de la Sante et de la Recherche Medicale …, priority 2011, dated 2016).

Test system: K. pneumoniae
Assay: MIC of imipenem, ertapenem and meropenem
Assay type: cell-based, Klebsiella pneumoniae

C[C@@H](O)[C@H]1C(=O)N2C(C(=O)O)=C(SCCN=CN)C[C@H]12 [IPM, imipenem]
MIC (K. pneumoniae 1 OMA (NDM-1 + CTX-M-15 + OXA-1 + OXA-9)): >32 mg/L
MIC (K. pneumoniae 2 OLA (NDM-1 + OXA-1)): 1.5 mg/L
MIC (K. pneumoniae 7 AFR (NDM-1 + OXA-1 + CTX-M-15 + CMY-6 + TEM-1)): >32 mg/L
MIC (K. pneumoniae 7AFR, NDM-1 + TEM-1 + CTX-M-15 + CMY-6 + OXA-1): >32 mg/L
MIC (K. pneumoniae 0227, SHV-1, non-carbapenemase producer): 0.19 mg/L
MIC (K. pneumoniae 588, KPC-2 + TEM-1 + SHV-11 + OXA-9): 24 mg/L
MIC (K. pneumoniae 1022, SHV-2a + SHV-28, non-carbapenemase producer): 0.5 mg/L
MIC (K. pneumoniae 1025 (CTX-M-14 + TEM-1 + SHV-11)): 0.12 mg/L
MIC (K. pneumoniae 1025, CTX-M-14 + TEM-1 + SHV-11, non-carbapenemase producer): 0.12 mg/L
MIC (K. pneumoniae 2303, KPC-2 + SHV-11): >32 mg/L
MIC (K. pneumoniae 6642 GEN (NDM-1 + CTX-M-15 + OXA-1 + OXA-10)): 1 mg/L
MIC (K. pneumoniae 6642 GEN, NDM-1 + CTX-M-15 + OXA-1 + OXA-10): 1 mg/L
MIC (K. pneumoniae 6759 GEN (NDM-1 + CTX-M-15 + OXA-1 + OXA-9 + OXA-10 + CMY16)): 12 mg/L
MIC (K. pneumoniae 6759 GEN, NDM-1 + CTX-M-15 + CMY-16 + OXA-1 + OXA-9 + OXA-10): 12 mg/L
MIC (K. pneumoniae 7725 (SHV-1)): 0.19 mg/L
MIC (K. pneumoniae 7725, SHV-1, non-carbapenemase producer): 0.19 mg/L
MIC (K. pneumoniae 10112, CTX-M-15 + TEM-1 + SHV-11, non-carbapenemase producer): 0.5 mg/L
MIC (K. pneumoniae 0404020, VIM-1+ SHV-5): >32 mg/L
MIC (K. pneumoniae 0404024, VIM-1): >32 mg/L
MIC (K. pneumoniae 0511135, VIM-1+ SHV-12): >32 mg/L
MIC (K. pneumoniae 648236 (SHV-2a)): 0.25 mg/L
MIC (K. pneumoniae 648236, SHV-2a, non-carbapenemase producer, porin deficiency): 0.25 mg/L
MIC (K. pneumoniae 0709121, IMP-1): 1.5 mg/L
MIC (K. pneumoniae 0709124, IMP-1 + TEM-15): 8 mg/L
MIC (K. pneumoniae 0709125, IMP-1 + TEM-1 + SHV-12): 1.5 mg/L
MIC (K. pneumoniae 0709127, IMP-1 + TEM-1): 0.5 mg/L
MIC (K. pneumoniae A28006, KPC-2 + TEM-1 + CTX-M-2 + SHV-11): 16 mg/L
MIC (K. pneumoniae A33504, KPC-2 + TEM-1 + SHV-11 + CTX-M-2 + OXA-9): >32 mg/L
MIC (K. pneumoniae AEL, OXA-48 + CTX-M-15 + SHV-28 + OXA-1): 0.5 mg/L
MIC (K. pneumoniae ALE (CTX-M-15 + SHV-1)): 1 mg/L
MIC (K. pneumoniae ALE, CTX-M-15 + SHV-1, non-carbapenemase producer, porin deficiency): 1 mg/L
MIC (K. pneumoniae AMS (OXA-48 + TEM-1 + CTX-M-15 + OXA-1)): 0.5 mg/L
MIC (K. pneumoniae AMS, OXA-48 + TEM-1 + CTX-M-15 + OXA-1): 0.5 mg/L
MIC (K. pneumoniae BAJ (OXA-48 + TEM-1 + CTX-M-15 + SHV-28)): 0.5 mg/L
MIC (K. pneumoniae BAJ, OXA-48 + TEM-1 + CTX-M-15 + SHV-28): 0.5 mg/L
MIC (K. pneumoniae BED (CTX-M-15 + TEM-1 + SHV-1; Table 8: SHV-11)): 1.5 mg/L
MIC (K. pneumoniae BED, CTX-M-15 + TEM-1 + SHV-11, non-carbapenemase producer, porin deficiency): 1.5 mg/L
MIC (K. pneumoniae BEL (OXA-48)): 1 mg/L
MIC (K. pneumoniae BEL, OXA-48): 1 mg/L
MIC (K. pneumoniae BEN (OXA-48 + TEM-1 + CTX-M-15 + SHV-28)): 0.38 mg/L
MIC (K. pneumoniae BEN, OXA-48 + TEM-1 + CTX-M-15 + SHV-28): 0.38 mg/L
MIC (K. pneumoniae BER (TEM-1 + SHV-28)): 1 mg/L
MIC (K. pneumoniae BER, SHV-28 + TEM-1, non-carbapenemase producer, porin deficiency): 1 mg/L
MIC (K. pneumoniae BEY (OXA-48 + CTX-M-15 + TEM-1)): 0.38 mg/L
MIC (K. pneumoniae BEY, OXA-48 + TEM-1 + CTX-M-15): 0.38 mg/L
MIC (K. pneumoniae BIC (OXA-48)): 0.5 mg/L
MIC (K. pneumoniae BIC, OXA-48): 0.5 mg/L
MIC (K. pneumoniae BOU, OXA-48): 0.38 mg/L
MIC (K. pneumoniae CHA (OXA-48 + TEM-1)): 0.38 mg/L
MIC (K. pneumoniae CHA, OXA-48 + TEM-1): 0.38 mg/L
MIC (K. pneumoniae COL (KPC-2 + TEM-1 + SHV-1 + CTX-M-15)): 4 mg/L
MIC (K. pneumoniae COO (CTX-M-15 + SHV28)): 8 mg/L
MIC (K. pneumoniae COO, CTX-M-15 + SHV-28, non-carbapenemase producer, porin deficiency): 8 mg/L
MIC (K. pneumoniae DAL (OXA-48 + CTX-M-15 + TEM-1)): 0.38 mg/L
MIC (K. pneumoniae DAL, OXA-48 + TEM-1 + CTX-M-15): 0.38 mg/L
MIC (K. pneumoniae DIA, OXA-48 + TEM-1b + CTX-M-15 + SHV-11 + OXA-1): >32 mg/L
MIC (K. pneumoniae DUW, OXA-48 + TEM-1 + CTX-M-15 + SHV-28): 32 mg/L
MIC (K. pneumoniae EGY (OXA-48 + CTX-M-15)): 2 mg/L
MIC (K. pneumoniae EGY, OXA-48 + CTX-M-15): 2 mg/L
MIC (K. pneumoniae ELK (OXA-48 + TEM-1 + CTX-M-15 + SHV-11)): 0.5 mg/L
MIC (K. pneumoniae ELK, OXA-48 + TEM-1 + CTX-M-15 + SHV-11): 0.5 mg/L
MIC (K. pneumoniae ENN, VIM-1+ SHV-5): 0.5 mg/L
MIC (K. pneumoniae FOS (CTX-M-15 + TEM-1 + SHV-11)): 6 mg/L
MIC (K. pneumoniae FOS, CTX-M-15 + TEM-1 + SHV-11, non-carbapenemase producer, porin deficiency): 6 mg/L
MIC (K. pneumoniae GES, KPC-2 + TEM-1 + SHV-11): 6 mg/L
MIC (K. pneumoniae HOL (OXA-181 + CTX-M-15)): 1 mg/L
MIC (K. pneumoniae HOL, OXA-181 + CTX-M-15): 1 mg/L
MIC (K. pneumoniae HPA, OXA-48 + TEM-1 + CTX-M-15 + OXA-1): 1.5 mg/L
MIC (K. pneumoniae IND (NDM-1 + OXA-1 + CTX-M-15)): 1 mg/L
MIC (K. pneumoniae KAM, KPC-3 + TEM-1 + SHV-11): 8 mg/L
MIC (K. pneumoniae KDH (DHA-2)): 0.12 mg/L
MIC (K. pneumoniae KDH, DHA-2, non-carbapenemase producer, overexpressed AmpC): 0.12 mg/L
MIC (K. pneumoniae KI2, NDM-1 + CTX-M-15 + OXA-1): 1 mg/L
MIC (K. pneumoniae KIE, NDM-1 + SHV-38 + CMY-16 + OXA-10): 0.75 mg/L
MIC (K. pneumoniae KPN (CTX-M-15)): 0.12 mg/L
MIC (K. pneumoniae KPN, CTX-M-15, non-carbapenemase producer): 0.12 mg/L
MIC (K. pneumoniae LEG (CTX-M-15 + TEM-1 + SHV-12)): 0.75 mg/L
MIC (K. pneumoniae LEG, CTX-M-15 + TEM-1 + SHV-12, non-carbapenemase producer, porin deficiency): 0.75 mg/L
MIC (K. pneumoniae LIB (OXA-48)): >32 mg/L
MIC (K. pneumoniae LIB, OXA-48): 16 mg/L
MIC (K. pneumoniae LIE, KPC-2 + TEM-2 + OXA-9): >32 mg/L
